Reference: patent USRE48097E1, “Cephem compounds, their production and use” (priority 2015, dated 2020)
In brackets after ≈: the same amount, converted by molar mass.

Key:
[1] = test system: S. aureus 3136; assay: MIC against S. aureus 3136; assay type: cell-based; details: Table 2, S. aureus 3136, MSSA
From the text: (§1) Without limitation, the present cephem compounds alone, or in combination with one or more β-lactamase inhibitors, may provide improved antibacterial efficacy, particularly in antibiotic-resistant bacterial strains. It is believed that the present compounds may be structurally different from known compounds and, as a result, may be more basic in nature. It is an advantage that the present compounds may extend the spectrum of effective bacterial compounds, particularly against previously-resistant bacteria (e.g. ESKAPE organisms), and/or gram negative bacteria, without significant side effects. In a preferred embodiment, the present cephem compound may comprise reference compound ceftazidime, which may be used alone, or in combination with one or more β-lactamase inhibitors, such as NXL-104. As shown, the foregoing composition was tested for minimum inhibitory concentration (MIC, μg/mL) against bacteria listed in Tables 2-3.

[2] = test system: S. aureus3137; assay: MIC against S. aureus3137; assay type: cell-based, S. aureus; details: Table 2, S. aureus3137, MSSA
From the text: as §1

[3] = test system: S. aureus 3147; assay: MIC against S. aureus 3147; assay type: cell-based; details: Table 2, S. aureus 3147, MSSA
From the text: as §1

[4] = test system: S. pneumoniae 2392; assay: MIC against S. pneumoniae 2392; assay type: cell-based; details: Table 2, S. pneumoniae 2392, Pen R
From the text: as §1

[5] = test system: S. pneumoniae 2403; assay: MIC against S. pneumoniae 2403; assay type: cell-based; details: Table 2, S. pneumoniae 2403, Pen S
From the text: as §1

[6] = test system: E. cloacae 2704; assay: MIC against E. cloacae 2704; assay type: cell-based; details: Table 2, E. cloacae 2704, P99
From the text: as §1

[7] = test system: E. cloacae 566; assay: MIC against E. cloacae 566; assay type: cell-based; details: Table 2, E. cloacae 566, Caz R, IMP S
From the text: as §1

[8] = test system: K. pneumoniae 4104; assay: MIC against K. pneumoniae 4104; assay type: cell-based; details: K. pneumoniae 4104, KPC-3, TEM-1
Method: (§2) As shown, the foregoing composition was tested for minimum inhibitory concentration (MIC, μg/mL) against bacteria listed in Tables 2-3.

[9] = test system: K. pneumoniae 4105; assay: MIC against K. pneumoniae 4105; assay type: cell-based; details: K. pneumoniae 4105, KPC-3, TEM-1, SHV-11
Method: as §2

[10] = test system: K. pneumoniae 4107; assay: MIC against K. pneumoniae 4107; assay type: cell-based; details: K. pneumoniae 4107, KPC-2, TEM-1, SHV-11
Method: as §2

[11] = test system: M. morganii 2409; assay: MIC against M. morganii 2409; assay type: cell-based; details: Table 2, M. morganii 2409, High level cephase, β-Lactamase producing
From the text: as §1

[12] = test system: E. coli 2671; assay: MIC against E. coli 2671; assay type: cell-based; details: Table 2, E. coli 2671, VIM-19
From the text: as §1

[13] = test system: E. coli 4080; assay: MIC against E. coli 4080; assay type: cell-based; details: Table 2, E. coli 4080, TEM-10
From the text: as §1

[14] = test system: E. coli 4098; assay: MIC against E. coli 4098; assay type: cell-based; details: Table 2, E. coli 4098, CTX-M-15, TEM-1
From the text: as §1

[15] = test system: E. coli 4102; assay: MIC against E. coli 4102; assay type: cell-based; details: Table 2, E. coli 4102, CTX-M-14
From the text: as §1

[16] = test system: K. baumanii 2579; assay: MIC against K. baumanii 2579; assay type: cell-based; details: Table 2, K. baumanii 2579, OXA-25
From the text: as §1

[17] = test system: K. baumanii 4091; assay: MIC against K. baumanii 4091; assay type: cell-based; details: Table 2, K. baumanii 4091, OXA-23
From the text: as §1

[18] = test system: E. cloacae 2689; assay: MIC against E. cloacae 2689; assay type: cell-based; details: Table 3, E. cloacae 2689, KPC-2
Method: as §2

[19] = test system: E. cloacae 2705; assay: MIC against E. cloacae 2705; assay type: cell-based; details: Table 3, E. cloacae 2705, VIM-1, KPC-3type
Method: as §2

[20] = test system: E. cloacae 2706; assay: MIC against E. cloacae 2706; assay type: cell-based; details: Table 3, E. cloacae 2706, VIM-1, KPC-3
Method: as §2

[21] = test system: E. cloacae 2709; assay: MIC against E. cloacae 2709; assay type: cell-based; details: Table 3, E. cloacae 2709, KPC-3, VIM-1
Method: as §2

[22] = test system: E. cloacae 2710; assay: MIC against E. cloacae 2710; assay type: cell-based; details: Table 3, E. cloacae 2710, KPC-3, VIM-1
Method: as §2

[23] = test system: E. coli 2666; assay: MIC against E. coli 2666; assay type: cell-based; details: Table 3, E. coli 2666, KPC-2
Method: as §2

[24] = test system: K. pneumoniae 4088; assay: MIC against K. pneumoniae 4088; assay type: cell-based; details: Table 3, K. pneumoniae 4088, KPC-3
Method: as §2

[25] = Table 2, in combination with NXL-104
[26] = Table 3, in combination with NXL-104

`CC(C)(O/N=C(\C(=O)N[C@@H]1C(=O)N2C(C(=O)[O-])=C(C[n+]3ccccc3)CS[C@H]12)c1csc(N)n1)C(=O)O` [CAZ, ceftazidime, reference compound] showed an MIC ([1]; alone) of 8.00 µg/mL, an MIC ([1]; in combination with NXL-104) of 8.00 µg/mL and an MIC ([2]; alone) of 32.00 µg/mL. For the same compound, the MIC ([2]; in combination with NXL-104) was 32.00 µg/mL, the MIC ([3]; alone) was 8.00 µg/mL and the MIC ([3]; in combination with NXL-104) was 8.00 µg/mL. It also gave an MIC ([4]; alone) of 16.00 µg/mL, an MIC ([4]; in combination with NXL-104) of 16.00 µg/mL and an MIC ([5]; alone) of 0.12 µg/mL. It also gave an MIC ([5]; in combination with NXL-104) of 0.12 µg/mL, an MIC ([6]; alone) of 16.00 µg/mL and an MIC ([6]; in combination with NXL-104) of 4.00 µg/mL. The MIC ([7]; alone) was >32 µg/mL, the MIC ([7]; in combination with NXL-104) was 2.00 µg/mL and the MIC ([8]; Table 2, alone) was 32.00 µg/mL (≈ 58.5 µM). The MIC [8, 25] was 8.00 µg/mL, the MIC ([8]; Table 3, alone) was >32 µg/mL and the MIC [8, 26] was 2 µg/mL. For the same compound, the MIC ([9]; Table 2, alone) was 32.00 µg/mL (≈ 58.5 µM), the MIC [9, 25] was 4.00 µg/mL and the MIC ([9]; Table 3, alone) was >32 µg/mL. For the same compound, the MIC [9, 26] was 4 µg/mL, the MIC ([10]; Table 2, alone) was 32.00 µg/mL (≈ 58.5 µM) and the MIC [10, 25] was 8.00 µg/mL. For the same compound, the MIC ([10]; Table 3, alone) was >32 µg/mL, the MIC [10, 26] was 4 µg/mL and the MIC ([11]; alone) was 16.00 µg/mL. The MIC ([11]; in combination with NXL-104) was 4.00 µg/mL, the MIC ([12]; alone) was 32.00 µg/mL and the MIC ([12]; in combination with NXL-104) was 32.00 µg/mL. The MIC ([13]; alone) was 16.00 µg/mL, the MIC ([13]; in combination with NXL-104) was 4.00 µg/mL and the MIC ([14]; alone) was 2.00 µg/mL. It also gave an MIC ([14]; in combination with NXL-104) of 0.50 µg/mL, an MIC ([15]; alone) of 1.00 µg/mL and an MIC ([15]; in combination with NXL-104) of 0.25 µg/mL. For the same compound, the MIC ([16]; alone) was >32 µg/mL, the MIC ([16]; in combination with NXL-104) was >32 µg/mL and the MIC ([17]; alone) was >32 µg/mL. The MIC ([17]; in combination with NXL-104) was 16.00 µg/mL, the MIC ([18]; alone) was >32 µg/mL and the MIC ([18]; in combination with NXL-104) was 2 µg/mL. The MIC ([19]; alone) was >32 µg/mL, the MIC ([19]; in combination with NXL-104) was >32 µg/mL and the MIC ([20]; alone) was >32 µg/mL. For the same compound, the MIC ([20]; in combination with NXL-104) was 32 µg/mL, the MIC ([21]; alone) was >32 µg/mL and the MIC ([21]; in combination with NXL-104) was 8 µg/mL. The MIC ([22]; alone) was >32 µg/mL, the MIC ([22]; in combination with NXL-104) was >32 µg/mL and the MIC ([23]; alone) was >32 µg/mL. The MIC ([23]; in combination with NXL-104) was 4 µg/mL, the MIC ([24]; alone) was >32 µg/mL and the MIC ([24]; in combination with NXL-104) was 8 µg/mL.
